From a melting point compilation (Tetko et al.; mined from patent text by program, amines drawn as free bases though some values may be those of a salt) come the findings set out here.

For orientation: melting point means the temperature, or range, at which the solid turns liquid.

Compound `CS(=O)(=O)c1ccc(-c2[nH]c3ccc(Cl)cc3c2-c2cccc(Cl)c2)cc1` registered a melting point of 254 to 257 °C. The value for `COc1cccc(N(CC(=O)N(C)c2ccccc2)C(=O)CN2C(=O)c3ccccc3C2=O)c1` was 137 °C; that for `O=C(CCCCCCNC(=O)c1ccc(C(C(=O)Nc2cccc3cccnc23)C(=O)Nc2cccc3cccnc23)cc1)NO` was 212 to 215 °C. `CCOC(=O)C(Cl)=Cc1cc(NC(N)=O)ccc1Cl` had a melting point of 209 to 210 °C. On to `CCOC(=O)C1=C(C)NC(C(OCC)OCC)=C(C(=O)OCC)C1c1ccco1` (stereo not given), for which the melting point lay in the range of 59 to 60 °C.

The compound `O=[N+]([O-])c1ccc(F)c(-c2cncnc2)c1F` had a melting point of 78 to 80 °C. Take `CC(=Cc1ccccc1)n1c(=O)n(CCCCCl)c2ccccc21`: the melting point was 90 °C. The compound `CCc1noc(-c2ncn(-c3cccc(Oc4ccc(Cl)cc4)c3)c2COC)n1` came in with a melting point of 68 to 70 °C. Regarding `CCCCCCCCNC1=NS(=O)(=O)c2cc(Cl)cnc2N1`, the melting point lay in the range of 170 to 175 °C. `CC(=O)OC(c1cccc(Cl)c1Cl)C(Cl)(Cl)C(F)(F)F` (stereo not given): the melting point is 92 to 95 °C. As for `Cn1c2ccc(Cl)cc2c2c(CO)nn(-c3ccccc3)c(=O)c21`, the melting point fell in the range of 278 to 280 °C. The value for `CC(=O)N(C)Cc1ccc(C(=O)Cn2cnc3cc(-c4ccc(Cl)cc4)sc3c2=O)cc1` was 250 to 251 °C; that for `CC(=O)c1cc(N2CCCC2)ccc1NC(=O)c1cccc2c1OCO2` was 139 to 141 °C. `CC(C)(C)OC(=O)N1CCN(c2ccc(OCC3(C)CCn4cc([N+](=O)[O-])nc4O3)cc2)CC1` (stereo not given) returned a melting point of 208 to 209 °C. In turn, `CCN(CC)c1ccc(/C=C/C(=O)CC(=O)/C=C/c2ccc3cc[nH]c3c2)cc1` had a melting point of 110 to 118 °C. In the case of `Cc1cccc(C)c1-c1cc2cnc(N)nc2n(C)c1=N`, the melting point fell in the range of 197 to 198 °C. For `Cn1c2ncccc2c(=O)n2nccc12`, the melting point worked out at 249 °C. Turning to `O=C(O)c1ncccc1Cl`, the melting point lay in the range of 126 to 128 °C.

Turning to `Cc1cccc(C)c1NC(=O)c1ccc(S(C)(=O)=O)cc1`, the melting point is 164 to 166 °C.

`COc1ccc(Cl)cc1C(=O)NCc1ccc(CC(=O)O)cc1` yielded a melting point of 140 to 141 °C. Compound `O=C(C=Cc1ccccc1)c1c(Cl)cccc1Cl` gave a melting point of 98.2 to 99.2 °C. `COc1cccc2c1OC(C(=O)N1CCC(NC(=O)Nc3ccccc3)CC1)CC2` (stereo not given) returned a melting point of 215 to 216 °C. The value for `OC(CCc1ccc(Cl)s1)Cn1ccnc1` (stereo not given) was 82 to 84.5 °C; that for `O=S(CCl)c1ccc(-n2cnnn2)cc1` (stereo not given) was 147 to 149 °C; that for `COCCOc1cc(NC(=O)OC(C)(C)C)c([N+](=O)[O-])cc1C#Cc1ccccc1` was 118 to 119 °C. For the compound `CN(C)CCc1ccc(N)c2[nH]ncc12`, the melting point came to 125 °C. In the case of `Cc1nc(-c2ccc(F)cc2)n(-c2ccc(S(C)(=O)=O)cc2)n1` it was 143 to 144 °C; in that of `O=C(c1ccccc1)c1cc(O)c(O)c([N+](=O)[O-])c1`, 132 °C. In the case of `COC(=O)c1csc(Cl)c1NC(C)=O` it was 119 to 121 °C. For `COc1cc(C(=O)N2Cc3ccc(C(=O)NCc4ccc5c(c4)OCO5)n3Cc3ccccc32)ccc1-c1ccccc1C`, the melting point fell in the range of 167 to 168 °C. In the case of `O=C1CC(c2cccc(-c3nc(CO)cs3)c2)=Nc2ccc(-n3cccc3)cc2N1` it was 238 to 240 °C; in that of `CC(C)N(C(=O)COc1c(F)cc(-c2ccc(C(=O)O)cc2)cc1[N+](=O)[O-])C(C)C`, 202 °C. The value for `Cc1nn2c(-c3ccc(Cl)cc3Cl)cccc2c1[N+](=O)[O-]` was 146 to 150 °C; that for `CCOC(=O)c1cn(-c2ccccn2)c2occc2c1=O` was 199 to 200 °C; that for `CCCCNC(=O)N(C)c1ncc(-c2ccncc2)cn1` was 97 to 99 °C. Compound `O=C(NCCCCn1cncn1)c1ccc(Cl)s1` yielded a melting point of 97 to 99 °C. `CCc1ccc2ncc(-c3nnn[nH]3)c(=O)n2c1` returned a melting point of 289 to 290 °C. `Cc1nc(-c2cnn(-c3c(Cl)cc(C(F)(F)F)cc3Cl)n2)[nH]c1[N+](=O)[O-]` yielded a melting point of 231 to 232 °C.

In turn, `c1ccc2sc(-c3ccnc(Nc4ccc5c(c4)OCCO5)c3)cc2c1` had a melting point of 154 °C. The compound `CC(=O)c1cnc2c(n1)CCCC2` had a melting point of 42 to 45 °C. As for `Cc1n[nH]c(CC#N)c1Oc1cc(Cl)cc(Cl)c1`, the melting point fell in the range of 150 to 152 °C.

In the case of `CS(=O)(=O)N(N(CCCl)S(=O)(=O)c1ccccc1)S(C)(=O)=O`, the melting point was 114 to 115 °C. In the case of `CCN(C)C(=O)c1cc(C)c(C(c2cc(F)ccc2F)S(=O)(=O)c2ccc(F)cc2)cn1` (stereo not given) it was 165 to 167 °C; in that of `O=P(CCc1ccccc1)(OCc1ccccc1)OCc1ccccc1`, 48 to 49 °C; in that of `O=C(O)C(=O)C(=O)Nc1cccc([N+](=O)[O-])c1`, 110 °C. In turn, `COC(=O)N1OCC(=Cc2cc(C(C)(C)C)c(O)c(C(C)(C)C)c2)C1=O` had a melting point of 191 to 192 °C.

For the compound `Cc1ccc(C(=O)n2c3c(c4ccccc42)CC(C(=O)O)(C(=O)O)CC3)cc1`, the melting point is 190 to 195 °C. Compound `CCN(CC)C(=O)CCc1ccc(N)c([N+](=O)[O-])c1` came in with a melting point of 98 to 99 °C. For the compound `COC1=C(OC)C(=O)C(CCC(=O)N2CCC[C@H]2C(=O)O)=C(C)C1=O`, the melting point is 131 °C. The value for `CCC(C)(C)c1ccc(OCCCNC(=O)c2cc(OS(=O)(=O)CCCOc3ccc([N+](=O)[O-])cc3)c3ccccc3c2O)c(C(C)(C)CC)c1` was 140 to 141 °C. In the case of `CCOc1cc2c(c3c1OC(C)(C)C3)C(c1ccccc1)=[N+]([O-])C(C)(C)C2` it was 125 to 126 °C; in that of `CCOCCOC(=O)C1=C(C)NC(C)=C([N+](=O)[O-])C1c1cccc([N+](=O)[O-])c1` (stereo not given), 140 °C; in that of `CCNC(=O)c1c([Si](C)(C)C)ccc(C)c1Cl`, 120 to 122 °C. In the case of `CCCCCCC(=O)c1ccc2c(c1)CC(=O)O2`, the melting point lay in the range of 64 to 67 °C. With `CC(C)(CN1CCN(C(=O)c2ccc(OC(=O)Cc3ccccc3Nc3c(Cl)cccc3Cl)cc2)CC1)SN=O`, the melting point lay in the range of 61 to 62 °C. In the case of `OC[C@H]1O[C@@H]1c1cc(F)cc(F)c1` it was 48 to 50 °C; in that of `N#CC(C#N)C1(C#N)CCSc2ccccc21` (stereo not given), 136 to 137 °C; in that of `CS(=O)(=O)N1Cc2cccc(-c3ccc4cnc(Nc5ccc(C6CCN(CC(N)=O)CC6)cc5)nn34)c2C1`, 244 to 247 °C. Compound `CN(C)C(N)=NC(=O)C(Br)c1c(Cl)cccc1Cl` (stereo not given) displayed a melting point of 142 to 145 °C. Compound `Cc1nc2cc(NC(=O)c3cc4cc(C(F)(F)F)ccc4n3Cc3cccc(F)c3)ccn2c1C` came in with a melting point of 280 to 281 °C.

The compound `COc1ccc(-c2cn(C)cc(-c3ccccc3)c2=O)cc1C` had a melting point of 157 to 160 °C. The compound `CC(C)c1ccc(C2(OC(=O)c3ccccc3)C(=O)c3ccccc3C2=O)c(O)c1` displayed a melting point of 117 to 119 °C. In the case of `COc1ccc([N+](=O)[O-])c(Oc2cc(C)[nH]n2)n1`, the melting point was 133 to 136 °C.

With `COc1ccc(NCCCCCNC(C)=O)c2c1C(=O)c1ccccc1C2=O`, the melting point is 145 to 147 °C. In the case of `CCOC(=O)c1sc(-n2ccc(OCC3CC3)cc2=O)nc1C` it was 180 to 183 °C.

The compound `Nc1nc(Cl)c2cnn(Cc3ccccc3F)c2n1` yielded a melting point of 197 to 198 °C. The value for `CC1CC(C)CN(Cc2ccc(C=CC(=O)Nc3ccc(-c4ccc(Cl)cc4)cc3)cc2)C1` (stereo not given) was 217 to 218 °C; that for `Cc1cccc(-c2cn(C)cc(-c3ccccc3)c2=O)c1` was 79.5 °C; that for `CCOC(=O)c1ccc(OCCCCCCCCCCC2c3c(c4ccccc4c4ccccc34)-c3c2c2ccccc2c2ccccc32)cc1` was 122 to 124 °C.

Compound `O=C1CC=C(c2ccccc2F)c2cc(Cl)ccc2N1` came in with a melting point of 214 to 215 °C. In the case of `O=C(CCN1CCN(c2cccc(C(F)(F)F)c2)CC1)c1ccc2c(c1)Cc1cc(C(=O)CCN3CCN(c4cccc(C(F)(F)F)c4)CC3)ccc1O2` it was 155 to 157 °C.

Take `O=C(NCC12CC3CC(CC(C3)C1)C2)c1c(Cl)ccc2nc(N3CCC[C@@H](C(=O)O)C3)ccc12`: the melting point lay within 257 to 262 °C. `Cc1nc(-c2ccc(N3CC(CN4CCN(C(CC(=O)OCc5ccccc5)C(=O)OCc5ccccc5)CC4)OC3=O)cc2)no1` (stereo not given) gave a melting point of 119 °C. With `CC(C)(C)OC(=O)N1CCC2(CC1)C(=O)N(CC(=O)O)CN2C1CCCCC1`, the melting point lay in the range of 173 to 174 °C.

In the case of `Cc1c(-c2ccccc2)nc2ccc(-c3cccc(CO)c3)cn12`, the melting point was 222 to 223 °C. `Cc1cc(NC(=O)C=Cc2ccccc2)c(NC(=O)C=Cc2ccccc2)cc1C` yielded a melting point of 244 °C. As to `CCOc1noc(-c2ncn(C(c3ccccc3)(c3ccccc3)c3ccccc3)n2)c1C`, the melting point lay in the range of 181 to 183 °C. In turn, `N=C(N)NCCCc1nccs1` showed a melting point of 160 to 163 °C. With `Cc1ncc2n1-c1ccc(Cl)cc1C(c1ccccc1F)N(N=O)C2` (stereo not given), the melting point lay within 139 to 145 °C.

`COc1cc(OC)c2c(=O)[nH]c(-c3cccc(N4CCN(CC(C)C)CC4)n3)nc2c1`: the melting point was 188 to 189 °C. For the compound `Clc1nccnc1Oc1ccc2c(c1)OCO2`, the melting point fell in the range of 87 to 88 °C. With `COc1cc(COc2nn(-c3ccccc3)cc2/C=C/C2=NCCO2)ccc1OCc1nc(-c2ccco2)oc1C`, the melting point was in the range of 162 to 163 °C. As to `Cc1ccnc(C)c1NC(=O)NCCCl`, the melting point is 122 to 124 °C. On to `O=C1CCC(N2Cc3c(OCc4ccc(CN5CCn6nc(C(F)(F)F)nc6C5)cc4)cccc3C2=O)C(=O)N1` (stereo not given), for which the melting point was in the range of 139 to 142 °C. For the compound `CN(C)CC1CN(Cc2ccccc2)c2ccccc2N1C=O` (stereo not given), the melting point lay within 82 to 84 °C.
